{
  "source": "paper PMC9026741",
  "about": "(Bioorganic chemistry, 2020)",
  "origin": "cited, not measured here",
  "target": "T1, Nrp1 (Homo sapiens, UniProt O14786)",
  "T1 sequence (O14786 274-586)": "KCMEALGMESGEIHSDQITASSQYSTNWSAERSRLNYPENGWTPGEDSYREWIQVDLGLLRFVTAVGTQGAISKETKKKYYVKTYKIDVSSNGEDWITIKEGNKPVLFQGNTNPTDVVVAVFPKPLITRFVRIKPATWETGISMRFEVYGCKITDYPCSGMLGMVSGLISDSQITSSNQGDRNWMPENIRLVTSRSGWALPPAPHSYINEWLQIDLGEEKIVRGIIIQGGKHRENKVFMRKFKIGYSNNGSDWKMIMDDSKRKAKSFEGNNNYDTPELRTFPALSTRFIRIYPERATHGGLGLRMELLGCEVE",
  "settings": "Nrp1 over Nrp2",
  "data": [
    {"substance": "ATWLPPR", "values": [
      {"measurement": "preference for Nrp1", "result": "two-fold preference for Nrp1"}
    ]}
  ]
}
